The assay addresses USP1 (construct USP1 (I-785, GG670, 671AA)/UAF1 (I-677)-Flag) (Homo sapiens (Human), UniProt O94782, G670A/G671A). Briefly: Ubiquitin-Rhodamine 110 assay for USP1 activity. The assay is classed as biochemical. The settings on record: USP1/UAF1 25 pM, Ub-Rh110 25 nM, 30 min preincubation. An outline of the steps: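 Two formats with the USP1/UAF1 complex and 25 nM ubiquitin-rhodamine 110 in pH 8.0 Tris buffer with calcium, glutathione and detergent. Single-point screening used 10 µM, 100 pM enzyme and 45 min. Inhibition was set against no-enzyme and DMSO wells.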

By IC50 is commonly meant the point on the concentration scale where inhibition reaches its midpoint. A high value points to lower potency.

USP1 (construct USP1 (I-785, GG670, 671AA)/UAF1 (I-677)-Flag), sequence (O94782 whole entry G670A/G671A): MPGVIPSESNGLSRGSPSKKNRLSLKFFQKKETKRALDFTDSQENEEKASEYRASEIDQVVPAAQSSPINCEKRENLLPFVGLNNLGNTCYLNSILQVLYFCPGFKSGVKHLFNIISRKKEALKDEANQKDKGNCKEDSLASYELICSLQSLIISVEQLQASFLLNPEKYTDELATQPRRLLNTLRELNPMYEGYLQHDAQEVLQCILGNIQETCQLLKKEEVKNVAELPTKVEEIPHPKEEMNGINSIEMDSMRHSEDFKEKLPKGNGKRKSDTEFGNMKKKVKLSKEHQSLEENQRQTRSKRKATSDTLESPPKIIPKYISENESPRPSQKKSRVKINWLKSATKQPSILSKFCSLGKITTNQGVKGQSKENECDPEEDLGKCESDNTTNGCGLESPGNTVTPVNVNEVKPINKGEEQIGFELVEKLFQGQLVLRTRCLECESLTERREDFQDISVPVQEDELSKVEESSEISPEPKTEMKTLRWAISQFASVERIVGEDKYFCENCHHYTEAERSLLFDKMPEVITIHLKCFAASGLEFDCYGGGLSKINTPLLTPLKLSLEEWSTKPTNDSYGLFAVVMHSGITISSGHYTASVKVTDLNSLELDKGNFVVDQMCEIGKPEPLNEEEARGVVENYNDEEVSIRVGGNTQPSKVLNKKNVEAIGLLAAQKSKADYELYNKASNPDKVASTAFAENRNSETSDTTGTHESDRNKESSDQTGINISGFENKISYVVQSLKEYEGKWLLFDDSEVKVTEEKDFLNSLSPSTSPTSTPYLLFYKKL
USP1 (construct USP1 (I-785, GG670, 671AA)/UAF1 (I-677)-Flag), sequence (Q8TAF3 whole entry partner): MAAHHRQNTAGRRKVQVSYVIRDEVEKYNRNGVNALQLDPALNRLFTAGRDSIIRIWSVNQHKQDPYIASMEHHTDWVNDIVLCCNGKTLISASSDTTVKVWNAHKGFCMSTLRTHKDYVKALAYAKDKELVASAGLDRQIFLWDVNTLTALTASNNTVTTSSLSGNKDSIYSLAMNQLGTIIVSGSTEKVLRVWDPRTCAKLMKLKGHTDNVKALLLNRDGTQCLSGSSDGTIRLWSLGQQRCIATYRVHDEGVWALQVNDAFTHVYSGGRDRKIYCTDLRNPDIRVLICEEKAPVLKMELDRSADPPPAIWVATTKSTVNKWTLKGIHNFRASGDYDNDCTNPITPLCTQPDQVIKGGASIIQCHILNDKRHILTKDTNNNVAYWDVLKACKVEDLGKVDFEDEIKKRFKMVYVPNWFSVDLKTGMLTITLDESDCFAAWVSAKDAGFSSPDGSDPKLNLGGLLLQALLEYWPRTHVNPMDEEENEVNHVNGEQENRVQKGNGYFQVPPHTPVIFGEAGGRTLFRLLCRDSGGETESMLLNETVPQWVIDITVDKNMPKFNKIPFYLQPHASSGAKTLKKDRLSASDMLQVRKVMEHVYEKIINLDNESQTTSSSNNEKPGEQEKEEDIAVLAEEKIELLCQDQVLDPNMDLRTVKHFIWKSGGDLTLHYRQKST

`CC(C)c1ccccc1-c1ncc2[nH]c(=O)n(Cc3ccc(C(=O)N4CC5(CCOC5)C4)cc3)c2n1` [Compound I-394, 9-(4-(6-oxa-2-azaspiro[3.4]octane-2-carbonyl)benzyl)-2-(2-isopropylphenyl)-7,9-dihydro-8H-purin-8-one] gave an IC50 of 200 to 2000 nM.

On to `CC(C)c1ccccc1-c1ncc2[nH]c(=O)n(Cc3ccc(-c4ncn(C)n4)cc3)c2n1` [Compound I-274, 2-(2-isopropylphenyl)-9-(4-(1-methyl-1H-1,2,4-triazol-3-yl)benzyl)-7,9-dihydro-8H-purin-8-one], for which the half-inhibitory concentration (IC50) was in the range of 50 to 200 nM.

In turn, `CC(C)c1ncccc1-c1ncc2c(n1)n(Cc1ccc(-n3nc(C(F)(F)F)cc3N3CCOCC3)cc1)c(=O)n2C` [Compound I-117, 2-(2-isopropylpyridin-3-yl)-7-methyl-9-(4-(5-morpholino-3-(trifluoromethyl)-1H-pyrazol-1-yl)benzyl)-7,9-dihydro-8H-purin-8-one] yielded an IC50 of under 50 nM.

In turn, `CN1CCc2cccc(-c3ncc4[nH]c(=O)n(Cc5ccc(-c6nc(C(F)(F)F)cn6C)cc5)c4n3)c21` [Compound I-34, 9-(4-(1-methyl-4-(trifluoromethyl)-1H-imidazol-2-yl)benzyl)-2-(1-methylindolin-7-yl)-7,9-dihydro-8H-purin-8-one] returned an IC50 of under 50 nM.

`CC(C)c1cccc(F)c1-c1ncc2[nH]c(=O)n(Cc3ccc(-n4cccn4)cc3)c2n1` [Compound I-96, 9-(4-(1H-pyrazol-1-yl)benzyl)-2-(2-fluoro-6-isopropylphenyl)-7,9-dihydro-8H-purin-8-one] gave an IC50 of under 50 nM.

The compound `CC(=O)N1CCC(c2ccn(-c3ccc(Cn4c(=O)[nH]c5cnc(-c6cccnc6OCC(F)(F)F)nc54)cc3)n2)CC1` [Compound I-466, 9-(4-(3-(1-acetylpiperidin-4-yl)-1H-pyrazol-1-yl)benzyl)-2-(2-(2,2,2-trifluoroethoxy)pyridin-3-yl)-7,9-dihydro-8H-purin-8-one] displayed an IC50 of 200 to 2000 nM.

For `CC(C)c1ccccc1-c1ncc2[nH]c(=O)n(Cc3ncc(-n4cccn4)cn3)c2n1` [Compound I-509, 9-((5-(1H-pyrazol-1-yl)pyrimidin-2-yl)methyl)-2-(2-isopropylphenyl)-7,9-dihydro-8H-purin-8-one], the IC50 is over 2000 nM.

For the compound `CC(C)c1ccccc1-c1ncc2c(n1)n(Cc1ccc(OCCN(C)C)cc1)c(=O)n2C` [Compound I-233, 9-(4-(2-(dimethylamino)ethoxy)benzyl)-2-(2-isopropylphenyl)-7-methyl-7,9-dihydro-8H-purin-8-one], the IC50 fell in the range of 50 to 200 nM.

As for `CC(C)c1ccccc1-c1ncc2[nH]c(=O)n(Cc3ccc(-n4nccn4)cc3)c2n1` [Compound I-140, 9-(4-(2H-1,2,3-triazol-2-yl)benzyl)-2-(2-isopropylphenyl)-7,9-dihydro-8H-purin-8-one], the IC50 was 50 to 200 nM.

On to `Cc1cn(C)c(N2CCC(Cn3c(=O)n(C)c4cnc(-c5ccccc5C(C)C)nc43)CC2)n1` [Compound I-501, 9-((1-(1,4-Dimethyl-1H-imidazol-2-yl)piperidin-4-yl)methyl)-2-(2-isopropylphenyl)-7-methyl-7,9-dihydro-8H-purin-8-one], for which the IC50 was 50 to 200 nM.

`CCc1ccccc1-c1ncc2[nH]c(=O)n(Cc3ccc(-n4cccn4)cc3)c2n1` [Compound I-27, 9-(4-(1H-pyrazol-1-yl)benzyl)-2-(2-ethylphenyl)-7,9-dihydro-8H-purin-8-one] had an IC50 of 50 to 200 nM.

`Cn1cc(C(F)(F)F)nc1-c1ccc(Cn2c(=O)[nH]c3cnc(-c4cccnc4NCC4CCCO4)nc32)cc1` (centres unmarked) [Compound I-320, 9-(4-(1-methyl-4-(trifluoromethyl)-1H-imidazol-2-yl)benzyl)-2-(2-(((tetrahydrofuran-2-yl)methyl)amino)pyridin-3-yl)-7,9-dihydro-8H-purin-8-one] had an IC50 of 50 to 200 nM.

Take `CC(C)c1ccccc1-c1ncc2[nH]c(=O)n([C@@H]3CCOc4ccccc43)c2n1` [Compound I-159, (R)-9-(chroman-4-yl)-2-(2-isopropylphenyl)-7,9-dihydro-8H-purin-8-one]: the IC50 fell in the range of 200 to 2000 nM.

Regarding `CC(C)c1ccccc1-c1ncc2[nH]c(=O)n(Cc3ccc(-n4ccc(C#N)n4)cc3)c2n1` [Compound I-196, 1-(4-((2-(2-isopropylphenyl)-8-oxo-7,8-dihydro-9H-purin-9-yl)methyl)phenyl)-1H-pyrazole-3-carbonitrile], the IC50 was under 50 nM.

With `CC1CCN(C(=O)c2ccc(Cn3c(=O)[nH]c4cnc(-c5ccccc5C(C)C)nc43)cc2)CC1` [Compound I-366, 2-(2-isopropylphenyl)-9-(4-(4-methylpiperidine-1-carbonyl)benzyl)-7,9-dihydro-8H-purin-8-one], the IC50 was in the range of 50 to 200 nM.

`CC(C)c1ccccc1-c1ncc2[nH]c(=O)n(Cc3ccc(-c4cn[nH]n4)cc3)c2n1` [Compound I-523, 9-(4-(1H-1,2,3-triazol-5-yl)benzyl)-2-(2-isopropylphenyl)-7,9-dihydro-8H-purin-8-one]: the IC50 was in the range of 50 to 200 nM.

Consider `CC(C)c1ccccc1-c1ncc2[nH]c(=O)n([C@@H]3CC[C@H]3c3ccc(-n4cccn4)cc3)c2n1` [Compound I-163, 9-((1R,2S)-2-(4-(1H-pyrazol-1-yl)phenyl)cyclobutyl)-2-(2-isopropylphenyl)-7,9-dihydro-8H-purin-8-one], for which the IC50 was under 50 nM.

`CC(C)c1ncccc1-c1ncc2c(n1)n(Cc1ccc(-c3nc(C(F)(F)F)cn3C3COC3)cc1)c(=O)n2C` [Compound I-124, 2-(2-isopropylpyridin-3-yl)-7-methyl-9-(4-(1-(oxetan-3-yl)-4-(trifluoromethyl)-1H-imidazol-2-yl)benzyl)-7,9-dihydro-8H-purin-8-one]: the IC50 fell in the range of 50 to 200 nM.

With `CC(C)c1ccccc1-c1ncc2[nH]c(=O)n(Cc3ccc(C#N)cc3)c2n1` [Compound I-151, 4-((2-(2-isopropylphenyl)-8-oxo-7,8-dihydro-9H-purin-9-yl)methyl)benzonitrile], the IC50 fell in the range of 200 to 2000 nM.

`Cc1cc(C(=O)N(C)c2ccc(Cn3c(=O)n(C)c4cnc(-c5ccccc5C(C)C)nc43)cc2)n(C)n1` [Compound I-471, N-(4-((2-(2-isopropylphenyl)-7-methyl-8-oxo-7,8-dihydro-9H-purin-9-yl)methyl)phenyl)-N,1,3-trimethyl-1H-pyrazole-5-carboxamide]: the IC50 is over 2000 nM.

Compound `CC(C)c1ncccc1-c1ncc2c(n1)n(Cc1ccc(-c3nc(C(F)(F)F)cn3C)cc1)c(=O)n2CCO` [Compound I-123, 7-(2-hydroxyethyl)-2-(2-isopropylpyridin-3-yl)-9-(4-(1-methyl-4-(trifluoromethyl)-1H-imidazol-2-yl)benzyl)-7,9-dihydro-8H-purin-8-one] gave a half-inhibitory concentration (IC50) of 50 to 200 nM.

On to `CC(C)c1ccccc1-c1ncc2c(n1)n(Cc1ccc(-c3nccn3C)cc1)c(=O)n2C` [Compound I-257, 2-(2-isopropylphenyl)-7-methyl-9-(4-(1-methyl-1H-imidazol-2-yl)benzyl)-7,9-dihydro-8H-purin-8-one], for which the IC50 is under 50 nM.

In turn, `CC(C)c1ccccc1-c1ncc2c(n1)n(Cc1ccc(-n3cccn3)cc1)c(=O)n2C(C)C(=O)O` (centres unmarked) [Compound I-530, 2-(9-(4-(1H-Pyrazol-1-yl)benzyl)-2-(2-isopropylphenyl)-8-oxo-8,9-dihydro-7H-purin-7-yl)propanoic acid] showed an IC50 of 200 to 2000 nM.

The record behind these values is patent US10189841B2, “Purinones as ubiquitin-specific protease 1 inhibitors” (Forma Therapeutics, Inc., priority 2015, dated 2019).
